Values quoted from earlier work as cited in patent publication US20080293709A1, “Novel 2-Amino-Heterocycles Useful in the Treatment of Abeta-Related Pathologies” (AstraZeneca AB, priority 2005, published 2008).
Non-standard residues stand in square brackets, D forms with d. Residues, ends and D or L forms follow the SMILES beside them. *: point of attachment. Sta = CC(C)C[C@H](N)[C@@H](O)CC(=O)O; Isovaleryl = CC(C)CC(=O)*

Biological target: BACE (Homo sapiens, UniProt P56817)
Sequence (P56817 46-501): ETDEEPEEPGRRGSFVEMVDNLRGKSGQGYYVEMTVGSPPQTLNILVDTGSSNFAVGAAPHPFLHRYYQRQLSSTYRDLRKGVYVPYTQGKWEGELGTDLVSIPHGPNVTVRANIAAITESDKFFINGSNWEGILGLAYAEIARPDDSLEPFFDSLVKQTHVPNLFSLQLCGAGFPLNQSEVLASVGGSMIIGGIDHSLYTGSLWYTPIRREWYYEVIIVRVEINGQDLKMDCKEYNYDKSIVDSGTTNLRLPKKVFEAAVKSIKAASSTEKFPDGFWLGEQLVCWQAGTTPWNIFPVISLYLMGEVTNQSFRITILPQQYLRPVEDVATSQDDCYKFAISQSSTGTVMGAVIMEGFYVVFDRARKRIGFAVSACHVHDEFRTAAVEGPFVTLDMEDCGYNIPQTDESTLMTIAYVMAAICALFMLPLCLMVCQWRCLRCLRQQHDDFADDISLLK

## CC(C)CC(=O)N[C@H](C(=O)N[C@H](C(=O)N[C@@H](CC(C)C)[C@@H](O)CC(=O)N[C@@H](C)C(=O)N[C@@H](CC(C)C)[C@@H](O)CC(=O)O)C(C)C)C(C)C [pepstatin] (Isovaleryl-VV[Sta]A[Sta]-OH)
  inhibition of BACE: inhibited weakly
